Common to all, as to format: cell-based
One assay concerns MV-4-11 cells. Nature of the assay: Effect of the compound on proliferation of MV-4-11 cells (MTS). The following applies: Homo sapiens. As for the experimental part: MV-4-11 cells were cultured with IMDM plus 10% fetal bovine serum and collected. The cell concentration was diluted according to the action time of 7 days, and 180 ul of cell suspension was added to each well of a 96-well cell plate to make the cell count to be 2000. 20 ul of DMSO with a final concentration of 0.2% was added to the control cell wells. The compound was diluted 5-fold with the 10 mM stock solution, and 20 ul was also added to the compound cell wells (the final concentration of DMSO was 0.2%). The cells were placed in a 37° C., 5% CO2 incubator and incubated for 7 days. After preparing the reaction solution according to the MTS kit (Promega, G5430), 20 μL was added to each well, incubated in a 37° C., 5% CO2 incubator for 3-4 h. Read the 490 nm absorbance value with a microtiter plate, and used the 690 nm absorbance value as the background value and OD490-OD690 as the final initial data. The formula for calculating the inhibition rate of the compound was: inhibition rate=(OD DMSO-ODcompound)/(ODDMSO-Oblank)×100%. The compound's proliferation inhibition IC50 was fitted by Graph Pad Prism 5.0. The experiment was repeated three times, and three parallel experiments were used to calculate the average and standard deviation each time. The cell viability test results were shown in Table 3: A means cell viability IC50<1 μM, B means cell viability 1 μM≤IC50≤20 μM, C means cell viability IC50>20 μM.

For another assay, the system named is MM.1S cells. The assay is described as follows: Effect of the compound on the proliferation of MM.1S cells (MTS). Conditions: Homo sapiens, MM1.S, 168 h, 7 days, read-out: Cell inhibitory activity (IC50). An outline of the steps:
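In 1640 medium + 10% FBS, 20,000 cells per well were treated with 5-fold compound dilutions at 0.2% DMSO for 7 days at 37° C., 5% CO2. MTS was read after 3–4 h as OD490−OD690, inhibition was calculated against DMSO and blank wells, and IC50 was fitted; three independent experiments were run.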

For the next assay, the system named is TNF-α. Nature of the assay: TNF-α activity inhibition experiment in LPS-stimulated PBMC (ELISA). Conditions: Homo sapiens, compound 10 nM, LPS 1 ug/ml, 72 hours, read-out: Inhibition rate of TNF-a (%). As to the method:
All operations of this experiment were carried out according to the conventional experimental process of this kind of experiment at present. Peripheral blood from healthy volunteers was collected by routine standard procedure and cultured in 1640 medium (+10% FBS) to obtain PBMC. After recovery, PBMC was centrifuged and resuspended in serum-free medium. After counting, adjusted the density to be 6.25×10^5/ml; then inoculated 160 ul to a 96-well plate, 1×10^5/well; 20 ul 10× compound and DMSO were added, and incubated for 1 hour in an incubator; then 20 ul 10 XLPS was added resulting the final concentration of 1 ug/ml and incubated in an incubator for 72 hours. Centrifuged the cell plate at 1500 rpm and aspirated 50 ul supernatant according to the ELISA operation. After operating according to the kit, a microplate reader was used to read at 450 nm. The concentration of compound was 10 nM, and DMSO was added as control group. Materials used in this experiment: 96 well plate (Corning, #3599), ELISA kit (Thermo), LPS (Sigma, USA).
In general terms: An ELISA detects its analyte on a solid surface through an enzyme-linked reagent.

The structures appear in SMILES notation. Like-named read-outs stand apart in the source and are kept apart here.

Results on one compound are retold here after US20220041578A1, “ISOINDOLINE COMPOUND, AND PREPARATION METHOD, PHARMACEUTICAL COMPOSITION, AND APPLICATION OF ISOINDOLINE COMPOUND” (Shanghai Institute of Meteria Medica, Chinese Academy of …, priority 2018, published 2022).

Turning to `Nc1cccc2c1CN(C1CCC(=O)NC1=O)C2=O` (stereo not shown) [Lenalidomide, lenalidomide, reference compound], the IC50 is greater than 20 µM in the assay with MV-4-11 cells (MV4-11, 168 h, 7 days, MTS, read-out: Inhibitory activity (IC50)); greater than 20 µM in the assay on MV-4-11 cells (MV4-11, read-out: cytostatic activity (IC50) on MV-4-11 cells); less than 0.15 µM with MM.1S cells. For the same compound, in the assay with TNF-α, the inhibition at 0.01 µM is less than 50%.

For orientation: IC50 means the concentration that gives 50% inhibition. What is called inhibition is the share of the control response that was lost under treatment.
